Experimental data: patent US9732088B2, “C2-carbocyclic iminothiazine dioxides as BACE inhibitors, compositions, and their use” (Merck Sharp & Dohme Corp., priority 2014, dated 2017)

Assays:
[1] = target: BACE-1 (Homo sapiens (Human), UniProt P56817); assay: BACE-1 Cellular Assay (Aβ in HEK293-APPswe/lon cells); assay type: cell-based; conditions: 4 hours
Description: Assay 3: BACE-1 Cellular Assay
Certain compounds of the invention, identified in the tables herein, were determined to be potent inhibitors of BACE-1 in the following cellular assay. HEK293 cells are obtained from the American Type Culture Collection (ATCC) and stably transfected with the human amyloid precursor protein cDNA containing the FAD Swedish (enhances β-secretase processing) and London (enhances Aβ42 cleavage) mutations. A HEK293 stable clone with Aβ expression (HEK293-APP^swe/lon) is identified and maintained at 37° C., 5% CO2 in the ATCC-recommended growth media supplemented with hygromycin. […] Aβ40 or Aβ42 are measured in 15 μl of media using a mesoscale based ELISA assay. Full length Aβ40 and Aβ42 peptides are captured with the N-terminal specific biotinylated-WO2 monoclonal antibody and detected using either the ruthenylated Aβ40 C-terminal specific monoclonal antibody, G2-10 or the ruthenylated Aβ42 C-terminal specific monoclonal antibody G2-11 respectively. Raw electrochemiluminescnce values are measured using a Mesoscale Sector Imager plate reader and are plotted as a function of compound concentration. IC50 values are interpolated from the data using nonlinear regression analysis (Sigmoidal dose response fit with variable slope) of the data using GraphPad Prism software.

[2] = system: CSF Aβ40; assay: Aβ Reduction In Vivo (rat CSF Aβ40); conditions: male CD IGS rats, 10 mg/kg oral gavage, CSF at 3 hours, change vs vehicle
Description: Assay 5: Aβ Reduction In Vivo
The in vivo efficacy and/or potency of BACE inhibitors (test compounds) can be evaluated using a variety of animal models, including mouse, rat, dog, and monkey, and these animals can be wild type, transgenic, or gene knockout animals.
Generally, animals are administered (by oral gavage, intravenous injection, or by other suitable route) a test compound in doses ranging from, for example, 0.1 mg/kg (mg of compound per kg of animal body weight) to 100 mg/kg formulated in vehicles, such as cyclodextrin, phosphate buffer, hydroxypropyl methylcellulose or other suitable vehicles. One to twenty-four hours following the administration of compound, animals are sacrificed, and tissues (for example, brain, cerebrospinal fluid (CSF), and/or plasma) are collected for analysis of Aβ levels and/or test compound concentrations (Dovey et al., 2001, Journal of Neurochemistry, 76, 173-181). Tissue samples are processed appropriately and then analyzed for the presence of Aβ by specific sandwich ELISA assays based on electrochemiluminescence (ECL) technology.
For example, in the following assay for which data are reported below, male CD IGS rats (body weight approximately 120 g, Charles River Laboratories, Kingston, N.Y.) were used to assess lowering of CSF levels of Aβ1-40 (Aβ40) in the presence of compounds of the invention. At time 0, animals were administered by oral gavage a test compound at a dose of 10 mg/kg in 20% hydroxypropyl-β-cyclodextrin (dosing volume 5 mL/kg). A separate group of animals received 20% hydroxypropyl-β-cyclodextrin alone to serve as the vehicle control group. Three hours after administration, the rats were euthanized with excess CO2. Immediately following euthanasia, CSF was collected from the cisterna magna and quickly frozen on dry ice. Samples were stored at −80° C. until quantification of Aβ40 levels.
The measurement of endogenous rat Aβ40 in CSF relied on the 585 antibody (Ab585, BioSource, NONO585), which specifically recognizes the N-terminal sequence of rodent Aβ40, and on the monoclonal antibody, G2-10, which specifically recognizes the free C-terminus of Aβ40. Ab585 was labeled with biotin (b-Ab585) by first dialyzing the antibody sample extensively versus PBS (pH 7.8) to remove impurities, followed by dilution to between 1 and 2 mg/mL protein concentration. EZ-Link Sulfo-NHS-LC-Biotin (Pierce) was dissolved in PBS (pH 7.8) at a concentration of 1 mg/mL immediately prior to use. Ab585 was labeled with EZ-Link Sulfo-NHS-LC-biotin using a 10:1 biotin:antibody ratio by incubation at room temperature for 1 hour. The labeling reaction was quenched by addition of 1.0 M glycine to a final concentration of 0.1 M followed by 10 minute incubation at room temperature. Glycine was removed by extensive dialysis versus PBS.
For rat CSF Aβ40 determinations, a calibration curve of various concentrations of synthetic rodent Aβ40 was assayed in parallel with rat CSF samples in duplicate using an avidin-coated 96-well MSD plate (Mesoscale Diagnostics). Either 50 μL of rodent Aβ40 standards diluted in PBS (pH 7.4) supplemented with 1% BSA and 1% Tween-20 (standard diluent buffer) or 40 μL of standard diluent buffer plus 10 μL rat CSF were added to each 96 well avidin-coated plate. To each well was added 50 μL of 0.1 M HEPES (pH 7.5), 2% BSA, 2% Tween-20, 0.3 M NaCl (2×Aβ40 buffer) supplemented with the b-Ab585 capture and ruthenylated-G2-10 detection antibodies diluted to 1 μg/mL and 0.5 μg/mL, respectively. Plates were shaken for 1 min on a microplate shaker, covered to protect from light and incubated overnight (˜16 h) at 4° C. For detection, plates were first washed twice with 100 μL of 1×CSF Aβ40 buffer followed by addition of 160 μL of 1×MSD read buffer-T (Mesoscale Diagnostics) diluted in 1×CSF Aβ40 buffer. Plates were read on a MSD Sector Imager 2400 model (Mesoscale Diagnosotics). […]

[3] = target: rat Mdr1a (P-gp) (Rattus norvegicus, UniProt Q6PSM0); assay: P-Glycoprotein (P-gp) Efflux Susceptibility Assay; assay type: in vitro ADME; conditions: LLC-PK1, pH 7.4; rat LLC-Mdr1a cells, B-A/A-B Papp ratio at 3 h; method 0.1 μM; read-out: P-gp efflux assay (rMDR1a BAAB)
Chain of rat Mdr1a (P-gp) (Q6PSM0 1-1272): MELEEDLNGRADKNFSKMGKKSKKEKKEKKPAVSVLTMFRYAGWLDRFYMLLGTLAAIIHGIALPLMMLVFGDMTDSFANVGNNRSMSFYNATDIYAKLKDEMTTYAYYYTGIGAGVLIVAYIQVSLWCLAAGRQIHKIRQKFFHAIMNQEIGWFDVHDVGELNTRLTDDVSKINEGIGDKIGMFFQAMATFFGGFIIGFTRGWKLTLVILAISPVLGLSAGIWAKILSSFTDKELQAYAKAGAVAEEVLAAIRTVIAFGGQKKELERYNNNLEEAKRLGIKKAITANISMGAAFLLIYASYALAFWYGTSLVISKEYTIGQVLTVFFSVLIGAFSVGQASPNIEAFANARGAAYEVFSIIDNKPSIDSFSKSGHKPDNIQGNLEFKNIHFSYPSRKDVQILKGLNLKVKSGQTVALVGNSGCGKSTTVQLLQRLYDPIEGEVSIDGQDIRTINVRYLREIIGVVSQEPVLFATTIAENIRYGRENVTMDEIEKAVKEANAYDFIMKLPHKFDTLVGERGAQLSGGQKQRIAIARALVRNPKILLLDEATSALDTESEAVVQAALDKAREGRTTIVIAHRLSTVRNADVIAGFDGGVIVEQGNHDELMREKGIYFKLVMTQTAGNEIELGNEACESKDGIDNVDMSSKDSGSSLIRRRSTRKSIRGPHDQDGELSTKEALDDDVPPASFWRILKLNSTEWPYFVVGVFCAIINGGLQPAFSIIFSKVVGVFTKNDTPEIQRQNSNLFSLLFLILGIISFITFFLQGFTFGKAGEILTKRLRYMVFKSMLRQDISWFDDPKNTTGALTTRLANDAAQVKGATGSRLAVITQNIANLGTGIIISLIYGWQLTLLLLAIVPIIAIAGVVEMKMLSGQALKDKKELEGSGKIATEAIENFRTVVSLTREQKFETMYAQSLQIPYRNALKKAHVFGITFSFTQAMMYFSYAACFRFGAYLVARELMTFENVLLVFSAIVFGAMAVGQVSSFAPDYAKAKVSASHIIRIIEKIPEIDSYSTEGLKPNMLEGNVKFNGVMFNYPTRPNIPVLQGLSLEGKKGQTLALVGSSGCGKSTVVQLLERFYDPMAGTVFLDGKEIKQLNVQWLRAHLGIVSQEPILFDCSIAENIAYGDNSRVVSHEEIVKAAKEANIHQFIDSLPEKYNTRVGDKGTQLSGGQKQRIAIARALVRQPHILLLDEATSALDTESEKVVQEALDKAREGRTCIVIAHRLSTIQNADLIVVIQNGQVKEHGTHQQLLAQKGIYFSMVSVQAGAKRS
Description: Assay 6: P-Glycoprotein (P-Gp) Efflux Susceptibility Assay
As P-gp is expressed at the blood-brain-barrier, among other tissues, lower P-gp efflux ratio values are associated with a better ability to cross the blood-brain-barrier to reach the site of BACE-1 expression in the central nervous system. P-gp efflux ratios are measured in cellular assays using cell lines that express P-gp from a number of species including rat, monkey, and human. The following assay was used to measure the rat P-gp efflux ratios, which are believed to be the most sensitive measure of P-gp susceptibility, for the compounds of the invention (test compounds) reported in the tables below.
The bidirectional transport of test compounds was conducted across pig kidney epithelial (LLC-PK1) cell monolayers. Native LLC-PK1 cells were obtained from The Netherlands Cancer Institute (Amsterdam, The Netherlands), and used under a license agreement. LLC-PK1 cells expressing a cDNA encoding rat Mdr1a (rat LLC-Mdr1a) were made in-house by stable transfection of LLC-PK1 cells with a rat MDR1 cDNA. LLC-PK1 and rat LLC-Mdr1a cell lines were cultured in 96-well transwell culture plates. […] Substrate solution (150 μL) was added to either the apical (A) or the basolateral (B) compartment of the culture plate, and buffer (150 μL; HBSS, 10 mM HEPES, pH 7.4) was added to the compartment opposite to that containing the compound. At t=3 h, 50 μL samples were removed from both sides of monolayers dosed with test compound and placed in 96 well plates, internal standard (50 μL 1 μM labetolol) was added to the samples. Samples were analyzed by LC/MS/MS using an Applied Biosystems SCIEX API 5000 triple quadruple mass spectrometry (Concord, ON, Canada) with a TurbolonSpray ion source in the positive ion mode. A Thermo Scientific Transcend LX-2 system (Franklin, Mass.) was coupled to the API 5000 with a flow rate of 800 μL/min to direct sample into the mass spectrometer. A Waters ACQUITY UPLC T3 (2×30 mm, 1.7 μm; Milford, Mass.) column was used for sample analysis. Mobile phase A consisted of 0.1% formic acid in water. Mobile phase B was acetonitrile with 0.1% formic acid. A gradient elution program was utilized where the solvent composition was held at 5% B for 0.25 min, changed from 5% B to 95% B at 0.25 min, and followed by holding at 95% B for 0.5 min, then, went back to 5% B at 0.75 min. The column was then re-equilibrated at the original solvent composition for 0.5 min. Mass spectrometric detection was accomplished by multiple reaction monitoring (MRM) of transitions unique to each compound. Sample concentration was obtained by extrapolation from the standard curve. Verapamil (1 μM) was used as the positive control to assess the functional activity of Pgp. The experiment was performed in triplicate.
The Papp was calculated by the following formula for samples taken at t=3 h:
[formula] where “Volume of Receptor Chamber” is 0.15 mL, “Area of membrane” is 0.11 cm^2, the “Initial Concentration” is the sum of the concentration measured in the donor compartment plus the concentration measured in the receiver compartment at t=3 h, “Δ in Concentration” is the concentration in the receiver compartment at 3 h, and “Δ in Time” is the incubation time (3×60×60=10800 s). Papp was expressed as 10^−6 cm/s.
The Papp reported in the table below is the average of the Papp for transport from A to B and Papp for transport from B to A at t=3 hr.
The B-A/A-B ratio (BAAB) was calculated by dividing the Papp from B to A by the Papp from A to B at t=3 h: […]

Chain of BACE-1 (P56817 46-501): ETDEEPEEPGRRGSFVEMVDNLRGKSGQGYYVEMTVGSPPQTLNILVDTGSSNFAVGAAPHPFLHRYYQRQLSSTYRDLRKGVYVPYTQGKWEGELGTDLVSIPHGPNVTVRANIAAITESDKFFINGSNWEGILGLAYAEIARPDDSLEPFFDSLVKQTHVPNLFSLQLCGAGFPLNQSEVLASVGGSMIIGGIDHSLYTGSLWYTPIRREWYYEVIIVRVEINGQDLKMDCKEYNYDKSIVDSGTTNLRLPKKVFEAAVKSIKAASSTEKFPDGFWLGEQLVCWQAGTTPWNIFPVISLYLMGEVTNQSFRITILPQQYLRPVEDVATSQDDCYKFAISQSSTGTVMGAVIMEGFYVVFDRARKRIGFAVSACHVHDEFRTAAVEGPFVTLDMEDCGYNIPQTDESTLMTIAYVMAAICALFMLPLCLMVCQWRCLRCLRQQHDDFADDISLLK

Structure (SMILES): C[C@@]1(c2cc(Nc3nccc4cc(C#N)cnc34)ccc2F)CS(=O)(=O)[C@@](CF)(C2CC2)C(N)=N1 [Example 1, 8-({3-[(3R,6S)-6-cyclopropyl-6-(fluoromethyl)-5-imino-3-methyl-1,1-dioxidothiomorpholin-3-yl]-4-fluorophenyl}amino)-1,7-naphthyridine-carbonitrile]
- IC50 [1]: 24 nM
- Aβ reduction in vivo in rat (Δ% CSF Aβ40 @ 10 mpk) [2]: −58%
- efflux ratio at 3 h [3]: 6.1

Structure (SMILES): COc1cnc2c(Nc3cc([C@]4(C)CS(=O)(=O)[C@@](C)(C5CC5)C(N)=N4)c(F)cn3)ccnc2n1 [Example 35, (3R,6S)-5-amino-6-cyclopropyl-3-(5-fluoro-2-((3-methoxypyrido[2,3-b]pyrazin-8-yl)amino)pyridin-4-yl)-3,6-dimethyl-3,6-dihydro-2H-1,4-thiazine 1,1-dioxide]
- IC50 [1]: 10 nM
- Aβ reduction in vivo in rat (Δ% CSF Aβ40 @ 10 mpk) [2]: −75%

Structure (SMILES): COc1cnc2c(Nc3ccc(F)c([C@]4(C)CS(=O)(=O)[C@@](C)(C5CC5)C(N)=N4)c3)ccnc2c1 [Example 36, (3R,6S)-5-amino-6-cyclopropyl-3-(2-fluoro-5-((7-methoxy-1,5-naphthyridin-4-yl)amino)phenyl)-3,6-dimethyl-3,6-dihydro-2H-1,4-thiazine 1,1-dioxide]
- IC50 [1]: 3.5 nM
- Aβ reduction in vivo in rat (Δ% CSF Aβ40 @ 10 mpk) [2]: −67%
